Experimental data: patent publication US10428045B2, “Benzazepine compounds, conjugates, and uses thereof” (Silverback Therapeutics, Inc., priority 2017, dated 2019)
Structures can show the parent of a compound that is named as a salt.

How the values were obtained:
hTLR8 = target: T1, hTLR8 (Homo sapiens, UniProt Q9NR97); experiment: TLR7/TLR8 reporter assay, HEK-Blue hTLR8 reporter cells; type: cell-based; details: 17 hours, optical density at 640 nm
T1 construct: host or cells: HEK-Blue hTLR8 (HEK293-derived reporter cell line)
T1 sequence (Q9NR97 27-1041): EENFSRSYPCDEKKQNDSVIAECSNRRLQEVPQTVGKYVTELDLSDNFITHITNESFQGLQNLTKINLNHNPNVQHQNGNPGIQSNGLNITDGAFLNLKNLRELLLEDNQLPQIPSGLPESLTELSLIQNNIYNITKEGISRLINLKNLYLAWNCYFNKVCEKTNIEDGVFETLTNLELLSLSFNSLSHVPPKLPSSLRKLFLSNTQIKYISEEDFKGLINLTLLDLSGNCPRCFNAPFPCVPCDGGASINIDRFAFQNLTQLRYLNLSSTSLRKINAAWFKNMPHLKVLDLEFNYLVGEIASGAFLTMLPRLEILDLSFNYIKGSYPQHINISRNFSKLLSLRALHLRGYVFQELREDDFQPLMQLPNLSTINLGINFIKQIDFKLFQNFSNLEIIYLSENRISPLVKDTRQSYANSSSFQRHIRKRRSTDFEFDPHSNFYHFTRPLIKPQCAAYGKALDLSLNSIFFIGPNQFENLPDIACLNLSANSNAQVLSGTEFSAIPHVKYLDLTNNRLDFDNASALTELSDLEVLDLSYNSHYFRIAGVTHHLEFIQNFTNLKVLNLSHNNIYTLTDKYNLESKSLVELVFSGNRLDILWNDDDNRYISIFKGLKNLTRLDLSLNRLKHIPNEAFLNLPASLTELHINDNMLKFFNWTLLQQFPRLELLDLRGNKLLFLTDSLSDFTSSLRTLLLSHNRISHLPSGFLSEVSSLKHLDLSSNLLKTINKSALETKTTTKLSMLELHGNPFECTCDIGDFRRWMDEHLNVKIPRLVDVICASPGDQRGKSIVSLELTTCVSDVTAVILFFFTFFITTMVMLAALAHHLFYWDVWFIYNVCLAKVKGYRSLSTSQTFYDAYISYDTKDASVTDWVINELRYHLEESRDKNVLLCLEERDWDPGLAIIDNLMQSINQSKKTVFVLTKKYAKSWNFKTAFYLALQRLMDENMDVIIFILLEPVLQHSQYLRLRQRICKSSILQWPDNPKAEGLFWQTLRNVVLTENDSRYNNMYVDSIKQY
Experimental: (§1) Reporter cells lines (namely HEK-Blue Null1, HEK-Blue hTLR7 and HEK-Blue hTLR8) are obtained from InvivoGen. Cells are passed/expanded/stored in liquid nitrogen per supplier's instruction. The cells are typically split twice per week in the growth media of DMEM supplemented with 10% fetal bovine serum, 1× NEAA, 1 mM Pyruvate, 2 mM glutamine, 50 μg/mL penicillin, 50 U/mL streptomycin (each from Gibco) in the presence of the following antibiotics, as shown in Table 3:
(§2) Test samples (at desired concentrations diluted in DMEM) are added to the 96-well assay plate, 20 μL per well. Reporter cells are harvested from the tissue culture flasks by incubation in PBS at 37° C. for two minutes after the media in the flask is removed and cells rinsed with PBS. Cells are counted and diluted in the HEK-Blue Detection media at 0.22×10^6 cells/mL. Then 180 μL of cells are added to the assay plate containing the 20 μL of test samples, and incubated for 17 hours at 37° C. in a 5% CO2 humidified incubator. Optical density at 640 nm is analyzed using an Envision (Perkin Elmer) plate reader.

hTLR7 = target: T2, hTLR7 (Homo sapiens, UniProt Q9NYK1); experiment: TLR7/TLR8 reporter assay, HEK-Blue hTLR7 reporter cells; type: cell-based; details: 17 hours, optical density at 640 nm
T2 construct: host or cells: HEK-Blue hTLR7 (HEK293-derived reporter cell line)
T2 sequence (Q9NYK1 27-1049): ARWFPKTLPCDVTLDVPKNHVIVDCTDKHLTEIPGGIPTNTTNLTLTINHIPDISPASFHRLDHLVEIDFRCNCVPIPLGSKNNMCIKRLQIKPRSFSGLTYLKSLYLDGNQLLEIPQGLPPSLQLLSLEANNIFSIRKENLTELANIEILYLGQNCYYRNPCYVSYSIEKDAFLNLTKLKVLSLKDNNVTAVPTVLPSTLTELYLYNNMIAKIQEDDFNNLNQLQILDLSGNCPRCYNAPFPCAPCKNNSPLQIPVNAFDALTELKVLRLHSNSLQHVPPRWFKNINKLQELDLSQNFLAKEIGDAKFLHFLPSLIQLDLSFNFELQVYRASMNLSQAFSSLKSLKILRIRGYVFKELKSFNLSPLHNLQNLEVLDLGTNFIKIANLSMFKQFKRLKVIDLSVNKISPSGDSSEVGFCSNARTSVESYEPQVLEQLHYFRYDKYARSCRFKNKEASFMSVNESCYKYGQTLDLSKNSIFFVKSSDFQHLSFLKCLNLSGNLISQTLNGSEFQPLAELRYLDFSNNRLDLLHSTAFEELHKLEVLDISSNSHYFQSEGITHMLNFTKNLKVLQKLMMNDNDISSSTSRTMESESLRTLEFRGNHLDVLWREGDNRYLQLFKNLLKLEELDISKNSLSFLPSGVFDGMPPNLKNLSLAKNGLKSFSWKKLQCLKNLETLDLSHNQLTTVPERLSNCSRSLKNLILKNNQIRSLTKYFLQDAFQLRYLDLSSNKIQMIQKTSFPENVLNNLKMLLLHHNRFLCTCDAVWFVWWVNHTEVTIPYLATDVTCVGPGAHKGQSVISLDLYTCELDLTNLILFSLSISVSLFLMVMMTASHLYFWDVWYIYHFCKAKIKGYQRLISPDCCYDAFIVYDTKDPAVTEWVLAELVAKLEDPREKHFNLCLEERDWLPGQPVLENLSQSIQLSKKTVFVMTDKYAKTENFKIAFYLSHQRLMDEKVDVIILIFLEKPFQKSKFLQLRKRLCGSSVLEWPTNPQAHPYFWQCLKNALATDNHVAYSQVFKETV
Experimental: as §1, §2

Trop2+ MDA-MB-453 cells = experiment: Antigen dependent human monocyte activation in mouse model, TROP2+ tumor; type: in vivo; details: NOD SCID mice with TROP2+ tumor, 5-20 mg/kg intravenously, human monocytes injected intratumorally
Experimental: (§3) Human monocytes were prepared as described above. Trop2^+ MDA-MB-453 cells or Trop2^− MiaPaca2 were cultured by standard methods. A TLR8 benzazepine linker payload (LP) was prepared by attaching a MCC (N-maleimidomethyl]cyclohexane-1-carboxylate) linker in place of the mc-vc-PABA linker in Compound-Linker 2.1 to form Compound-Linker 2.22. TROP2-TLR8 benzazepine conjugates were prepared by conjugation of Compound-Linker 2.22 to a TROP2 antibody (sacituzumab) to form a conjugate with an average DAR of about 4.
(§4) On Day 1 NOD SCID mice were injected with 5×10^5 Trop2^+ MDA-MB-453 cells or Trop2-MiaPaca2 cells. Seven to ten days later when the tumor size reached about 300 mm^3, the mice were injected intraveneously with 5-20 mg/kg of the TROP2-TLR8 benzazepine conjugate or TROP2 antibody alone. Sixteen hours later, 10^6 human monocytes were injected intratumorally. Four to six hours later, the tumors were harvested and digested. Monocytes were identified by staining for cell surface markers and monocyte activation was determined by intracellular staining for IL-6.

Trop2− MiaPaca2 = experiment: Antigen dependent human monocyte activation in mouse model, TROP2− tumor; type: in vivo; details: NOD SCID mice with TROP2− tumor, 5-20 mg/kg intravenously, human monocytes injected intratumorally
Experimental: as §3, §4

EC50 (hTLR8) [µM]	EC50 (hTLR7) [µM]	Molecule	human monocyte activation (intracellular staining for IL-6) (Trop2+ MDA-MB-453 cells)	human monocyte activation (intracellular staining for IL-6) (Trop2− MiaPaca2)
0.5 to 1	> 1	CCCN(CCC)C(=O)C1=Cc2ccc(C(=O)Nc3cncc(CNC(=O)[C@H](Cc4ccccc4)NC(=O)OCc4ccccc4)c3)cc2N=C(N)C1 [Compound 1.16, benzyl (S)-(1-(((5-(2-amino-4-(dipropyl-carbamoyl)-3H-benzo[b]azepine-8-carboxamido)pyridin-3-yl)methyl)amino)-1-oxo-3-phenylpropan-2-yl)carbamate]		
< 0.5	> 1	CCCN(CCC)C(=O)C1=Cc2ccc(C(=O)Nc3cncc(CNC(=O)[C@@H]4CCCN4C(=O)OCc4ccccc4)c3)cc2N=C(N)C1 [Compound 1.17, benzyl (S)-2-(((5-(2-amino-4-(dipropyl-carbamoyl)-3H-benzo[b]azepine-8-carboxamido)pyridin-3-yl)methyl)carbamoyl)pyrrolidine-1-carboxylate]		
> 1	> 1	CCCN(CCC)C(=O)C1=Cc2ccc(C(=O)Nc3cccc([C@H]4CN(Cc5ccccc5)C[C@@H]4C(=O)OC)c3)cc2N=C(N)C1 [Compound 1.18, methyl (3R,4S)-4-(3-(2-amino-4-(dipropylcarbamoyl)-3H-benzo[b]azepine-8-carboxamido)phenyl)-1-benzylpyrrolidine-3-carboxylate trifluoroacetate salt]		
		control antibody: "TROP2 antibody alone"; "a TROP2 antibody (sacituzumab)"	did not cause human monocyte activation	did not cause human monocyte activation
